Data: patent US20160220569A1, “CDK4/6 Inhibitor Dosage Formulations For The Protection Of Hematopoietic Stem And Progenitor Cells During Chemotherapy” (G1 Therapeutics, Inc., priority 2015, published 2016)
“And” between values parts separate entries of the source, which are not always exact repeats. Equal values may be shown once.

Assay: 14-day oral gavage toxicokinetic study in rats
Assay type: in vivo
Details: for Compound 1 Plasma Concentration: daily oral 2 mg/kg (Group 7), individual animals
Protocol: Plasma was obtained from blood samples collected from rats in a composite sampling scheme, with 3 samples collected per sex, per dose, at each target collection time, as illustrated in Table 21 to Table 25. Samples were collected from the vehicle control group on Day 1 and Day 14 at 3 hour after administration. […] Blood samples were collected in tubes containing K3EDTA as an anticoagulant and placed on ice until processed to plasma via centrifugation. Samples were stored frozen at −80° C. until shipment to the bioanalytical laboratory for analysis.
The following parameters were determined:
Cmax: Maximum observed plasma concentration (ng/mL).
A value of 0 ng/mL was assigned to all values below the lower limit of quantitation (BLQ, <10.0 ng/mL).
AUC(0-inf): Area under the plasma concentration vs. time curve extrapolated from 0 to infinity (ng*h/mL), calculated as AUC(0-t)+AUC(t-inf) where AUC(t-inf) is calculated as last measurable concentration (CLast) divided by ke, where ke is the elimination rate constant determined by linear regression of the last three analytically measured points on the log plasma concentration vs. time curve. The selection criteria of the data points for inclusion in the calculation of ke required that at least three data points representing the terminal phase (after Tmax) were regressed and that R2≧0.850 when rounded.
CL: Clearance (L/h/kg), calculated as the dose divided by AUC(0-t).
Vd: Volume of distribution (L/kg), calculated as dose divided by the product of ke and AUC(0-inf).
Vdss: Steady state volume of distribution (L/kg), calculated as clearance […] mean residence time, where mean residence time is calculated as the area under the first moment curve divided by AUC(0-t).
t½: Elimination half-life (h), calculated as ln(2)/ke, where ke is the elimination rate constant determined by linear regression. Half-life was defined as not determined if regression criteria (specified in AUC(0-inf) above) were not met.
Cmax/Dose: Normalized Cmax, calculated as Cmax divided by total dose.
AUC/Dose: Normalized AUC, calculated as AUC(0-t) divided by total dose.
ii. Statistical Analysis Mean and standard deviation (SD) were calculated in Watson. Values of BLQ were assigned a value of 0 ng/mL for mean calculations. Concentration values and derived TK parameters were reported to three significant figures.

[1] = male, rat, plasma, po, 30 mg/kg, oral 30 mg/kg, Study Day 14, Male

CN1CCN(c2ccc(Nc3ncc4cc5n(c4n3)C3(CCCCC3)CNC5=O)nc2)CC1 [Compound 1, 2′-((5-(4-methylpiperazin-1-yl)pyridin-2-yl)amino)-7′,8′-dihydro-6′H-spiro[cyclohexane-1,9′-pyrazino[1′,2′:1,5]pyrrolo[2,3-d]pyrimidin]-6′-one]
AUC(0-t) [1]: 29300 ng·h/mL | Cmax [1]: 2030 ng/mL | Tmax [1]: 4 h | half-life (male, rat, plasma, po, 30 mg/kg, oral 30 mg/kg, Study Day 14, Male, read-out: t½ (converted)): 4.88 h | Compound 1 Plasma Concentration (rats, Female, Day 1, 0.5 h, 2 mg/kg): 69.7 ng/mL and 120 ng/mL | Compound 1 Plasma Concentration (rats, Female, Day 1, 1 h, 2 mg/kg): 53.3 ng/mL and 115 ng/mL and 106 ng/mL | Compound 1 Plasma Concentration (rats, Female, Day 1, 2 h, 2 mg/kg): 185 ng/mL and 187 ng/mL | Compound 1 Plasma Concentration (rats, Female, Day 1, 4 h, 2 mg/kg): 90.2 ng/mL and 201 ng/mL and 234 ng/mL | Compound 1 Plasma Concentration (rats, Female, Day 1, 8 h, 2 mg/kg): 70.0 ng/mL and 69.2 ng/mL and 151 ng/mL | Compound 1 Plasma Concentration (rats, Female, Day 1, 12 h, 2 mg/kg): 100 ng/mL and 54.7 ng/mL | Compound 1 Plasma Concentration (rats, Female, Day 1, 24 h, 2 mg/kg): BLQ (Below the lower limit of quantitation (<10.0 ng/mL)) and 28.8 ng/mL and 10.2 ng/mL | Compound 1 Plasma Concentration (rats, Female, Day 1, […]): BLQ (Below the lower limit of quantitation (<10.0 ng/mL)) | Compound 1 Plasma Concentration (rats, Female, Day 14, 0.5 h, 2 mg/kg): 108 ng/mL | Compound 1 Plasma Concentration (rats, Female, Day 14, 1 h, 2 mg/kg): 113 ng/mL | Compound 1 Plasma Concentration (rats, Female, Day 14, 2 h, 2 mg/kg): 200 ng/mL | Compound 1 Plasma Concentration (rats, Female, Day 14, 4 h, 2 mg/kg): 119 ng/mL | Compound 1 Plasma Concentration (rats, Female, Day 14, 8 h, 2 mg/kg): 54.0 ng/mL | Compound 1 Plasma Concentration (rats, Female, Day 14, 12 h, 2 mg/kg): 65.4 ng/mL and 32.0 ng/mL | Compound 1 Plasma Concentration (rats, Female, Day 14, 24 h, 2 mg/kg): BLQ (Below the lower limit of quantitation (<10.0 ng/mL)) | Compound 1 Plasma Concentration (rats, Female, Day 14, Predose): BLQ (Below the lower limit of quantitation (<10.0 ng/mL)) | Compound 1 Plasma Concentration (rats, Female, Day 14, […], 2 mg/kg): BLQ (Below the lower limit of quantitation (<10.0 ng/mL)) | Compound 1 Plasma Concentration (rats, Male, Day 1, 0.5 h, 2 mg/kg): 64.1 ng/mL and 74.1 ng/mL and 35.0 ng/mL | Compound 1 Plasma Concentration (rats, Male, Day 1, 1 h, 2 mg/kg): 47.1 ng/mL and 65.2 ng/mL | Compound 1 Plasma Concentration (rats, Male, Day 1, 2 h, 2 mg/kg): 113 ng/mL and 95.5 ng/mL | Compound 1 Plasma Concentration (rats, Male, Day 1, 4 h, 2 mg/kg): 107 ng/mL and 148 ng/mL | Compound 1 Plasma Concentration (rats, Male, Day 1, 8 h, 2 mg/kg): 108 ng/mL and 64.1 ng/mL | Compound 1 Plasma Concentration (rats, Male, Day 1, 12 h, 2 mg/kg): 61.3 ng/mL and 47.8 ng/mL | Compound 1 Plasma Concentration (rats, Male, Day 1, 24 h): BLQ (Below the lower limit of quantitation (<10.0 ng/mL)) | Compound 1 Plasma Concentration (rats, Male, Day 1, […]): BLQ (Below the lower limit of quantitation (<10.0 ng/mL)) | Compound 1 Plasma Concentration (rats, Male, Day 14, 0.5 h, 2 mg/kg): 49.0 ng/mL and 55.7 ng/mL | Compound 1 Plasma Concentration (rats, Male, Day 14, 1 h, 2 mg/kg): 34.9 ng/mL and 61.2 ng/mL | Compound 1 Plasma Concentration (rats, Male, Day 14, 2 h, 2 mg/kg): 109 ng/mL and 91.3 ng/mL | Compound 1 Plasma Concentration (rats, Male, Day 14, 4 h, 2 mg/kg): 119 ng/mL and 112 ng/mL | Compound 1 Plasma Concentration (rats, Male, Day 14, 8 h, 2 mg/kg): 112 ng/mL and 102 ng/mL | Compound 1 Plasma Concentration (rats, Male, Day 14, 12 h, 2 mg/kg): 50.8 ng/mL and 45.6 ng/mL | Compound 1 Plasma Concentration (rats, Male, Day 14, 24 h): BLQ (Below the lower limit of quantitation (<10.0 ng/mL)) | Compound 1 Plasma Concentration (rats, Male, Day 14, Predose): BLQ (Below the lower limit of quantitation (<10.0 ng/mL)) | Compound 1 Plasma Concentration (rats, Male, Day 14, […]): BLQ (Below the lower limit of quantitation (<10.0 ng/mL)) | Mean Compound 1 Plasma Concentration (rats, oral 2 mg/kg, Day 1, 24 h, Male, BLQ = <10.0 ng/mL): BLQ | Mean Compound 1 Plasma Concentration (rats, oral 2 mg/kg, Day 1, […], Female, BLQ = <10.0 ng/mL): BLQ | Mean Compound 1 Plasma Concentration (rats, oral 2 mg/kg, Day 1, […], Male, BLQ = <10.0 ng/mL): BLQ | Mean Compound 1 Plasma Concentration (rats, oral 2 mg/kg, Day 1, […], Overall, BLQ = <10.0 ng/mL): BLQ | Mean Compound 1 Plasma Concentration (rats, oral 2 mg/kg, Day 14, 24 h, Male, BLQ = <10.0 ng/mL): BLQ | Mean Compound 1 Plasma Concentration (rats, oral 2 mg/kg, Day 14, Pre-dose, Female, BLQ = <10.0 ng/mL): BLQ | Mean Compound 1 Plasma Concentration (rats, oral 2 mg/kg, Day 14, Pre-dose, Male, BLQ = <10.0 ng/mL): BLQ | Mean Compound 1 Plasma Concentration (rats, oral 2 mg/kg, Day 14, Pre-dose, Overall, BLQ = <10.0 ng/mL): BLQ | Mean Compound 1 Plasma Concentration (rats, oral 2 mg/kg, Day 14, […], Male, BLQ = <10.0 ng/mL): BLQ | Mean Compound 1 Plasma Concentration (rats, oral 5 mg/kg, Day 14, Pre-dose, Male): 20.0 ng/mL | Mean Compound 1 Plasma Concentration (rats, oral 5 mg/kg, Day 14, Pre-dose, Overall): 18.6 ng/mL | Mean Compound 1 Plasma Concentration (rats, oral 15 mg/kg, Day 14, Pre-dose, Female): 120 ng/mL | Mean Compound 1 Plasma Concentration (rats, oral 15 mg/kg, Day 14, Pre-dose, Male): 78.0 ng/mL | Mean Compound 1 Plasma Concentration (rats, oral 15 mg/kg, Day 14, Pre-dose, Overall): 99.2 ng/mL | Mean Compound 1 Plasma Concentration (rats, oral 30 mg/kg, Day 14, Pre-dose, Female): 336 ng/mL | Mean Compound 1 Plasma Concentration (rats, oral 30 mg/kg, Day 14, Pre-dose, Overall): 254 ng/mL | systemic exposure with increasing dose level (rats, oral, Days 1 and 14): increased roughly proportionally
